Reference: patent publication US11649240B2, “Substituted 4-phenylpiperidines, their preparation and use” (The Trustees of Columbia University in the City of New York, priority 2014, dated 2023)
Where a name gives a salt, the structure may show the parent alone.

Assays:
RBP4-TTR interaction = conditions: cited from earlier work
serum RBP4 and retinol = conditions: in vivo; cited from earlier work
Abca4−/− mice = assay: Bisretinoid accumulation in eyes of Abca4−/− mice; format: in vivo, mouse; conditions: Abca4−/− mice starting at 17 weeks old, 25 mg/kg for 12 weeks
Description: (§1) Abca4−/− mice have A2E levels in the ˜15-19 pmoles/eye range at 17 weeks old. Mice, starting at 17 weeks old, were treated with 25 mg/kg of Compound 81 for 12 weeks.

serum RBP4 = serum RBP4 (Mus musculus (Mouse), UniProt Q00724); assay: Serum RBP4 levels in Abca4−/− mice; format: in vivo; conditions: 25 mg/kg for 12 weeks
Description: as §1

Row | Compound | bisretinoid accumulation in Abca4−/− mouse model (Abca4−/− mice; present-tense example) | serum RBP4 reduction in treated mice (serum RBP4; present-tense example) | further results
1 | CC1=C(/C=C/C(C)=C/C=C/C(C)=C/C(=O)Nc2ccc(O)cc2)C(C)(C)CCC1 [fenretinide, N-(4-hydroxy-phenyl)retinamide] |  |  | disruption of RBP4-TTR interaction (RBP4-TTR interaction): disrupt the RBP4-TTR interaction; ocular all-trans retinol uptake and visual cycle (serum RBP4 and retinol): inhibit ocular all-trans retinol uptake and slow down the visual cycle
2 | CC(=O)N1CCc2c(C(=O)N3CCC(c4ccc(F)c(F)c4C(F)(F)F)CC3)n[nH]c2C1 [Compound 81, 1-(3-(4-(3,4-Difluoro-2-(trifluoromethyl)phenyl)piperidine-1-carbonyl)-4,5-dihydro-1H-pyrazolo[3,4-c]pyridin-6 (7H)-yl)ethanone] |  |  | bisretinoid accumulation in Abca4−/− mouse model (Abca4−/− mice): inhibited bisretinoid accumulation; serum RBP4 reduction in treated mice (serum RBP4): significant serum RBP4 reduction
3 | O=C(c1n[nH]c2c1CCNC2)N1CCC(c2cccc(F)c2Cl)CC1 [Compound 40, (4-(2-Chloro-3-fluorophenyl)piperidin-1-yl) (4,5,6,7-tetrahydro-1H-pyrazolo[3,4-c]pyridin-3-yl)methanone Hydrochloride] | inhibit bisretinoid accumulation | significant serum RBP4 reduction | 
4 | O=C(c1n[nH]c2c1CCNC2)N1CCC(c2ccc(F)c(F)c2C(F)(F)F)CC1 [Compound 34] | inhibit bisretinoid accumulation | significant serum RBP4 reduction | 
5 | O=C(c1n[nH]c2c1CCNC2)N1CCC(c2cccc(F)c2C(F)(F)F)CC1 [Compound 30, (4-(3-Fluoro-2-(trifluoromethyl)phenyl)piperidin-1-yl) (4,5,6,7-tetrahydro-1H-pyrazolo[3,4-c]pyridin-3-yl)methanone Hydrochloride] | inhibit bisretinoid accumulation | significant serum RBP4 reduction | 
6 | O=C(c1n[nH]c2c1CNCC2)N1CCC(c2cccc(F)c2Cl)CC1 [Compound 42, (4-(2-Chloro-3-fluorophenyl)piperidin-1-yl)(4,5,6,7-tetrahydro-1H-pyrazolo[4,3-c]pyridin-3-yl)methanone Hydrochloride] | inhibit bisretinoid accumulation | significant serum RBP4 reduction | 
7 | O=C(c1n[nH]c2c1CNC2)N1CCC(c2ccc(F)c(F)c2C(F)(F)F)CC1 [Compound 38, (4-(3,4-Difluoro-2-(trifluoromethyl)phenyl)piperidin-1-yl)(1,4,5,6-tetrahydropyrrolo[3,4-c]pyrazol-3-yl)methanone Hydrochloride] | inhibit bisretinoid accumulation | significant serum RBP4 reduction | 
8 | O=C(c1n[nH]c2c1CNCC2)N1CCC(c2ccc(F)c(F)c2C(F)(F)F)CC1 [Compound 36, (4-(3,4-Difluoro-2-(trifluoromethyl)phenyl)piperidin-1-yl)(4,5,6,7-tetrahydro-1H-pyrazolo[4,3-c]pyridin-3-yl)methanone Trifluoroacetic Acid Salt] | inhibit bisretinoid accumulation | significant serum RBP4 reduction | 
